# Data from patent US20020137929A1, “1 - (3-heterocyclylphenyl) isothiourea, -isourea, -guanidine and -amidine herbicidal agents” (Intellectual Property Department, BASF Aktiengesellschaft, priority 1998, published 2002).
# Key:
# CYPSE (Flatsedge) = assay: Postemergence weed control under flooded paddy conditions; format: in vivo, Cyperus serotinus; settings: postemergence weeds, 3-4 weeks after treatment
# Method in brief: (§1)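 Weeds 3 to 5 cm tall and rice seedlings at the 1.5 to 2.5 leaf stage were flooded, with water held 1.5 to 3 cm above the soil. Compounds in 50/50 v/v aqueous/acetone went into the flood water at about 0.0313 to 0.500 kg/ha. Visual 0-9 ratings versus control were made 3 to 4 weeks later.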
# [1] = system: TRZAWR (Wheat, Winter, cv Riband); assay: Postemergence herbicidal evaluation; format: in vivo, Triticum aestivum; settings: postemergence
# Method in brief: (§2)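 Herbicidal effect was judged by eye on a 0–9 scale covering stand, vigor, deformity, size and chlorosis, compared with controls, four to five weeks after seedlings about two weeks old were sprayed (40 psi, ~0.0156–0.500 kg/ha).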
# CYPIR (Rice Flatsedge) = assay: Preemergence weed control under flooded paddy conditions; format: in vivo, Cyperus iria; settings: rated 3-4 weeks after treatment
# Method in brief: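 Seeds or propagules sown in top 0.5 cm of silt loam soil, flooded 1.5 to 3 cm above surface throughout. Compound in 50/50 v/v aqueous/acetone pipetted into flood water at about 0.0313 to 0.500 kg/ha. Visual 0-9 rating versus control after three to four weeks in greenhouse.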
# ZEAMX (Corn, Field) = assay: Postemergence herbicidal evaluation; format: in vivo, Zea mays; settings: postemergence
# Method in brief: as §2
# SETVI (Foxtail, Green) [2] = assay: Postemergence herbicidal evaluation; format: in vivo, Setaria viridis; settings: postemergence
# Method in brief: as §2
# AMBEL (Ragweed, Common) = assay: Preemergence herbicidal evaluation; format: in vivo, Ambrosia artemisifolia; settings: rated 4-5 weeks after treatment
# Method in brief: (§3)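 In this greenhouse assay, monocot and dicot seeds are planted in soil and treated prior to emergence with an aqueous acetone spray (about 0.0156-0.500 kg/ha). Plants are assessed visually against control on a 0-9 scale after 4-5 weeks.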
# ABUTH (Velvetleaf) = assay: Postemergence herbicidal evaluation; format: in vivo, Abutilon theophrasti; settings: postemergence
# Method in brief: as §2
# ORYSAT (Rice, Tebonnet) = assay: Postemergence herbicidal evaluation; format: in vivo, Oryza sativa, (L.) Tebonnet; settings: postemergence
# Method in brief: as §2
# GALAP (Galium) = assay: Preemergence herbicidal evaluation; format: in vivo, Galium aparine; settings: rated 4-5 weeks after treatment
# Method in brief: as §3
# SETVI (Foxtail, Green) [3] = assay: Preemergence herbicidal evaluation; format: in vivo, Setaria viridis; settings: rated 4-5 weeks after treatment
# Method in brief: as §3
# [4] = system: ECHORC (Watergrass (Calif.)); assay: Postemergence weed control under flooded paddy conditions; format: in vivo, Echinochloa oryzoides; settings: postemergence weeds, 3-4 weeks after treatment
# Method in brief: as §1
# [5] = system: CHEAL (Lambsquarters, Common); assay: Postemergence herbicidal evaluation; format: in vivo, Chenopodium album; settings: postemergence
# Method in brief: as §2
# [6] = system: GLXMAW (Soybean, Williams); assay: Postemergence herbicidal evaluation; format: in vivo, Glycine max, (L.) Merr. cv Williams; settings: postemergence
# Method in brief: as §2
# [7] = system: SAGPY (Arrowhead (Pygmaea)); assay: Postemergence weed control under flooded paddy conditions; format: in vivo, Sagittaria pygmaea; settings: postemergence weeds, 3-4 weeks after treatment
# Method in brief: as §1
compound,measurement,setting,value
CN1C(=O)CS/C1=N/c1cc(-n2c(=O)cc(C(F)(F)F)n(C)c2=O)c(F)cc1Cl [Compound 7],Herbicidal rating CYPSE,CYPSE (Flatsedge); rate 0.0313 kg/ha,3.0
same,Herbicidal rating CYPSE,CYPSE (Flatsedge); rate 0.0625 kg/ha,7.0
same,Herbicidal rating CYPSE,CYPSE (Flatsedge); rate 0.1250 kg/ha,7.5
same,Herbicidal rating CYPSE,CYPSE (Flatsedge); rate 0.2500 kg/ha,8.0
same,TRZAWR herbicidal rating,[1]; rate 0.0157 kg/ha,4.5
same,TRZAWR herbicidal rating,[1]; rate 0.0313 kg/ha,3.0
same,TRZAWR herbicidal rating,[1]; rate 0.0625 kg/ha,5.0
same,TRZAWR herbicidal rating,[1]; rate 0.1250 kg/ha,6.0
same,Herbicidal rating CYPIR,CYPIR (Rice Flatsedge); 0.0313 kg/ha,8.0
same,Herbicidal rating CYPIR,CYPIR (Rice Flatsedge); 0.0625 kg/ha,9.0
same,Herbicidal rating CYPIR,CYPIR (Rice Flatsedge); 0.1250 kg/ha,9.0
same,Herbicidal rating CYPIR,CYPIR (Rice Flatsedge); 0.2500 kg/ha,9.0
same,ZEAMX herbicidal rating,"ZEAMX (Corn, Field); rate 0.0157 kg/ha",5.0
same,ZEAMX herbicidal rating,"ZEAMX (Corn, Field); rate 0.0313 kg/ha",6.0
same,ZEAMX herbicidal rating,"ZEAMX (Corn, Field); rate 0.0625 kg/ha",7.0
same,ZEAMX herbicidal rating,"ZEAMX (Corn, Field); rate 0.1250 kg/ha",7.0
same,SETVI herbicidal rating,"SETVI (Foxtail, Green) [2]; rate 0.0157 kg/ha",5.0
same,SETVI herbicidal rating,"SETVI (Foxtail, Green) [2]; rate 0.0313 kg/ha",4.0
same,SETVI herbicidal rating,"SETVI (Foxtail, Green) [2]; rate 0.0625 kg/ha",9.0
same,SETVI herbicidal rating,"SETVI (Foxtail, Green) [2]; rate 0.1250 kg/ha",9.0
same,AMBEL preemergence herbicidal rating,"AMBEL (Ragweed, Common); rate 0.0157 kg/ha",5.0
same,AMBEL preemergence herbicidal rating,"AMBEL (Ragweed, Common); rate 0.0313 kg/ha",8.5
same,AMBEL preemergence herbicidal rating,"AMBEL (Ragweed, Common); rate 0.0625 kg/ha",9.0
same,AMBEL preemergence herbicidal rating,"AMBEL (Ragweed, Common); rate 0.1250 kg/ha",9.0
same,AMBEL preemergence herbicidal rating,"AMBEL (Ragweed, Common); rate 0.2500 kg/ha",9.0
same,ABUTH herbicidal rating,ABUTH (Velvetleaf); rate 0.0157 kg/ha,9.0
same,ABUTH herbicidal rating,ABUTH (Velvetleaf); rate 0.0313 kg/ha,9.0
same,ABUTH herbicidal rating,ABUTH (Velvetleaf); rate 0.0625 kg/ha,9.0
same,ABUTH herbicidal rating,ABUTH (Velvetleaf); rate 0.1250 kg/ha,9.0
same,ORYSAT herbicidal rating,"ORYSAT (Rice, Tebonnet); rate 0.0157 kg/ha",4.5
same,ORYSAT herbicidal rating,"ORYSAT (Rice, Tebonnet); rate 0.0313 kg/ha",4.0
same,ORYSAT herbicidal rating,"ORYSAT (Rice, Tebonnet); rate 0.0625 kg/ha",4.5
same,ORYSAT herbicidal rating,"ORYSAT (Rice, Tebonnet); rate 0.1250 kg/ha",6.5
same,GALAP preemergence herbicidal rating,GALAP (Galium); rate 0.0157 kg/ha,4.0
same,GALAP preemergence herbicidal rating,GALAP (Galium); rate 0.0313 kg/ha,7.5
same,GALAP preemergence herbicidal rating,GALAP (Galium); rate 0.0625 kg/ha,9.0
same,GALAP preemergence herbicidal rating,GALAP (Galium); rate 0.1250 kg/ha,9.0
same,GALAP preemergence herbicidal rating,GALAP (Galium); rate 0.2500 kg/ha,9.0
same,SETVI preemergence herbicidal rating,"SETVI (Foxtail, Green) [3]; rate 0.0157 kg/ha",9.0
same,SETVI preemergence herbicidal rating,"SETVI (Foxtail, Green) [3]; rate 0.0313 kg/ha",9.0
same,SETVI preemergence herbicidal rating,"SETVI (Foxtail, Green) [3]; rate 0.0625 kg/ha",9.0
same,SETVI preemergence herbicidal rating,"SETVI (Foxtail, Green) [3]; rate 0.1250 kg/ha",9.0
same,SETVI preemergence herbicidal rating,"SETVI (Foxtail, Green) [3]; rate 0.2500 kg/ha",9.0
same,Herbicidal rating ECHORC,[4]; rate 0.0313 kg/ha,7.0
same,Herbicidal rating ECHORC,[4]; rate 0.0625 kg/ha,8.5
same,Herbicidal rating ECHORC,[4]; rate 0.1250 kg/ha,9.0
same,Herbicidal rating ECHORC,[4]; rate 0.2500 kg/ha,9.0
same,CHEAL herbicidal rating,[5]; rate 0.0157 kg/ha,0.0
same,CHEAL herbicidal rating,[5]; rate 0.0313 kg/ha,5.0
same,CHEAL herbicidal rating,[5]; rate 0.0625 kg/ha,6.0
same,CHEAL herbicidal rating,[5]; rate 0.1250 kg/ha,9.0
same,GLXMAW herbicidal rating,[6]; rate 0.0157 kg/ha,5.0
same,GLXMAW herbicidal rating,[6]; rate 0.0313 kg/ha,6.5
same,GLXMAW herbicidal rating,[6]; rate 0.0625 kg/ha,7.5
same,GLXMAW herbicidal rating,[6]; rate 0.1250 kg/ha,7.5
same,Herbicidal rating SAGPY,[7]; rate 0.0313 kg/ha,3.0
same,Herbicidal rating SAGPY,[7]; rate 0.0625 kg/ha,5.5
same,Herbicidal rating SAGPY,[7]; rate 0.1250 kg/ha,7.5
same,Herbicidal rating SAGPY,[7]; rate 0.2500 kg/ha,8.5
